According to patent US7652022B2, “Diaryl urea derivatives useful for the treatment of protein kinase dependent diseases” (Novartis AG, priority 2002, dated 2010):

Test system: not given
Assay: not given
Details: not given

Compared with `O=C(Nc1cccc(C(F)(F)F)c1)N1CCc2cc(Oc3ccncc3)ccc21` [Example 19, 5(4-pyridyloxy)-N-(3-trifluoromethyl-phenyl)amino-carbonyl-2,3-dihydroindole], `O=C(Nc1cccc(C(F)(F)F)c1)N1CCCc2cc(Oc3ccncc3)ccc21` [Example 20] is higher in melting point: 171 to 172.5 °C for the first, 185.5 to 188 °C for the second.

Work on `O=C(Nc1ccc(Oc2cc(Cl)ncn2)cc1)Nc1cccc(C(F)(F)F)c1` [Example 21, N-(4-(6-Chloropyrimidin-4-yl)-oxyphenyl)-N′-(3-trifluoromethylphenyl)-urea] yielded a melting point of 187.4 to 189.7 °C.

Target: T1, cytoplasmic kinase domain of human Flt-3 (Homo sapiens, UniProt P36888)
T1 construct: amino acids 563-993 of the cytoplasmic kinase domain of human Flt-3; made in house; host or cells: Sf9 insect cells (baculovirus, donor vector pFbacG01)
T1 sequence (P36888 563-993): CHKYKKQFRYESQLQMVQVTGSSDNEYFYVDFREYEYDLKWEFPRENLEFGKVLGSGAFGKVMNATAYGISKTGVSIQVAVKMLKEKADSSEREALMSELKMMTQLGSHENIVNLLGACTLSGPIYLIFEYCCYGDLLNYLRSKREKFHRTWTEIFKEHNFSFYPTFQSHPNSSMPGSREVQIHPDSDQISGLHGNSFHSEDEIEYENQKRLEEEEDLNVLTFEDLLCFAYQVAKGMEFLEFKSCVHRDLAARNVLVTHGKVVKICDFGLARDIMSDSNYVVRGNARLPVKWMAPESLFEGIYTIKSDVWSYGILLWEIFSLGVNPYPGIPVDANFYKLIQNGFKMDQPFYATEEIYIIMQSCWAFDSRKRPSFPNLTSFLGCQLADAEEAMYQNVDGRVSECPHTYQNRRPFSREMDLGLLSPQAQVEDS
Assay: Flt3 kinase inhibition, GST-Flt-3 filter binding assay
Format: biochemical
Details: % inhibition at 10 μM
Experimental: Flt3 kinase inhibition is determined as follows: The baculovirus donor vector pFbacG01 (GIBCO) is used to generate a recombinant baculovirus expressing the amino acid region amino acids 563-993 of the cytoplasmic kinase domain of human Flt-3. The coding sequence for the cytoplasmic domain of Flt-3 is amplified by PCR from human c-DNA libraries (Clontech). The amplified DNA fragments and the pFbacG01 vector are made compatible for ligation by digestion with BamH1 and HindIII. Ligation of these DNA fragments results in the baculovirus donor plasmid Flt-3(1.1). The production of the viruses, the expression of proteins in Sf9 cells and the purification of the GST-fused proteins are performed as follows:
Production of virus: Transfer vector (pFbacG01-Flt-3) containing the Flt-3 kinase domain is transfected into the DH10Bac cell line (GIBCO) and the transfected cells are plated on selective agar plates. Colonies without insertion of the fusion sequence into the viral genome (carried by the bacteria) are blue. Single white colonies are picked and viral DNA (bacmid) is isolated from the bacteria by standard plasmid purification procedures. Sf9 or Sf21 cells (American Type Culture Collection) are then transfected in flasks with the viral DNA using Cellfectin reagent. Determination of small scale protein expression in Sf9 cells: Virus containing media is collected from the transfected cell culture and used for infection to increase its titre. Virus containing media obtained after two rounds of infection is used for large-scale protein expression. For large-scale protein expression 100 cm^2 round tissue culture plates are seeded with 5×10^7 cells/plate and infected with 1 mL of virus-containing media (approx. 5 MOIs). After 3 days the cells are scraped off the plate and centrifuged at 500 rpm for 5 min. Cell pellets from 10-20, 100 cm^2 plates, are resuspended in 50 mL of ice-cold lysis buffer (25 mMTris-HCl, pH 7.5, 2 mM EDTA, 1% NP-40, 1 mM DTT, 1 mM PMSF). The cells are stirred on ice for 15 min and then centrifuged at 5000 rpms for 20 min. Purification of GST-tagged proteins: The centrifuged cell lysate is loaded onto a 2 mL glutathione-sepharose column (Pharmacia) and washed three times with 10 mL of 25 mM Tris-HCl, pH 7.5, 2 mM EDTA, 1 mM DTT, 200 mM NaCl. The GST-tagged protein is then eluted by 10 applications (1 mL each) of 25 mM Tris-HCl, pH 7.5, 10 mM reduced-glutathione, 100 mM NaCl, 1 mM DTT, 10% Glycerol and stored at −70° C. Measurement of enzyme activity: Tyrosine protein kinase assays with purified GST-Flt-3 are carried out in a final volume of 30 μL containing 200-1800 ng of enzyme protein (depending on the specific activity), 20 mM Tris-HCl, pH 7.6, 3 mM MnCl2, 3 mM MgCl2, 1 mM DTT, 10 μM Na3VO4, 3 μg/mL poly(Glu,Tyr) 4:1, 1% DMSO, 8.0 μM ATP and 0.1 μCi [γ^33 P] ATP). The activity is assayed in the presence or absence of inhibitors, by measuring the incorporation of ^33P from [γ^33P] ATP into the poly(Glu,Tyr) substrate. The assay (30 μL) is carried out in 96-well plates at ambient temperature for 20 min under conditions described below and terminated by the addition of 20 μL of 125 mM EDTA. Subsequently, 40 μL of the reaction mixture is transferred onto Immobilon-PVDF membrane (Millipore, Bedford, Mass., USA) previously soaked for 5 min with methanol, rinsed with water, then soaked for 5 min with 0.5% H3PO4 and mounted on vacuum manifold with disconnected vacuum source. After spotting all samples, vacuum is connected and each well rinsed with 200 μL 0.5% H3PO4. Membranes are removed and washed 4× on a shaker with 1.0% H3PO4, once with ethanol. Membranes are counted after drying at ambient temperature, mounting in Packard TopCount 96-well frame, and addition of 10 μL/well of Microscint™ (Packard). IC50 values are calculated by linear regression analysis of the percentage inhibition of each compound in duplicate, at four concentrations (usually 0.01, 0.1,1 and 10 μM). […]

Going from `Cc1ccc(NC(=O)Nc2ccc(Oc3ccncc3)cc2)cc1` [Example 4] to `Cc1ccc(NC(=O)Cc2ccc(Oc3ccncc3)cc2)cc1` [Example 17], the “Flt3 (% at 10 μM)” value falls from 98% to 92%.

First: CCc1ccc(NC(=O)N(C)c2ccc(Oc3ccncc3)cc2)cc1 [Example 5]
Second: CCCc1ccc(NC(=O)N(C)c2ccc(Oc3ccncc3)cc2)cc1 [Example 7]
The “Flt3 (% at 10 μM)” value of the first is lower: 64% for the first, 67% for the second.

Compared with `CN(C(=O)Nc1cccc(C(F)(F)F)c1)c1ccc(Oc2ccncc2)cc1` [Example 6], `Cc1ccc(NC(=O)N(C)c2ccc(Oc3ccncc3)cc2)cc1` [Example 8] is lower in “Flt3 (% at 10 μM)” value: 87% for the first, 57% for the second.

Going from `O=C(Nc1ccc(Oc2ccncc2)cc1)Nc1ccc(Br)c(C(F)(F)F)c1` [Example 9] to `O=C(Nc1ccc(Oc2ccncc2)cc1)Nc1ccc(OCC(F)(F)F)c(C(F)(F)F)c1` [Example 10], the “Flt3 (% at 10 μM)” value rises from 90% to 100%.

`COc1cc(NC(=O)Nc2ccc(Oc3ccncc3)cc2)cc(C(F)(F)F)c1` [Example 11] and `Cc1cc(Oc2ccc(NC(=O)Nc3cccc(C(F)(F)F)c3)cc2)ccn1` [Example 30] are the same in “Flt3 (% at 10 μM)” value: 100% for the first, 100% for the second.

Going from `CCCc1ccc(NC(=O)Nc2ccc(Cc3ccncc3)cc2)cc1` [Example 12] to `CCc1ccc(NC(=O)Nc2ccc(Cc3ccncc3)cc2)cc1` [Example 13], the “Flt3 (% at 10 μM)” value rises from 92% to 95%.

Compared with `Cc1ccc(NC(=O)Nc2ccc(Cc3ccncc3)cc2)cc1` [Example 14], `O=C(Nc1ccc(Cc2ccncc2)cc1)Nc1cccc(C(F)(F)F)c1` [Example 15] is higher in “Flt3 (% at 10 μM)” value: 89% for the first, 96% for the second.

First: CCc1ccc(NC(=O)Cc2ccc(Oc3ccncc3)cc2)cc1 [Example 16, N-(4-pyridin-4-yl-oxy-phenyl)acetyl-(4-ethyl-phenyl)-amide]
Second: CCCc1ccc(NC(=O)Cc2ccc(Oc3ccncc3)cc2)cc1 [Example 18]
The “Flt3 (% at 10 μM)” value of the first is higher: 94% for the first, 88% for the second.

Going from `O=C(Nc1cccc(C(F)(F)F)c1)N1CCc2cc(Oc3ccncc3)ccc21` [Example 19, 5(4-pyridyloxy)-N-(3-trifluoromethyl-phenyl)amino-carbonyl-2,3-dihydroindole] to `O=C(Nc1cccc(C(F)(F)F)c1)N1CCCc2cc(Oc3ccncc3)ccc21` [Example 20], the “Flt3 (% at 10 μM)” value rises from 63% to 69%.

Compared with `O=C(Nc1ccc(Oc2cc(Cl)ncn2)cc1)Nc1cccc(C(F)(F)F)c1` [Example 21, N-(4-(6-Chloropyrimidin-4-yl)-oxyphenyl)-N′-(3-trifluoromethylphenyl)-urea], `O=C(Nc1ccc(Oc2cc(Nc3ccc(O)cc3)ncn2)cc1)Nc1ccc(OCC(F)(F)F)c(C(F)(F)F)c1` [Example 32] is higher in “Flt3 (% at 10 μM)” value: 94% for the first, 100% for the second.
